Here are results for one compound from patent US20160095867A1, “BET INHIBITION THERAPY FOR HEART DISEASE” (DANA-FARBER CANCER INSTITUTE, INC., priority 2013, published 2016).

The subject of series [1] is NRVM. The series can be described thus: PE-mediated pathologic gene induction in NRVM (qRT-PCR, gene expression profiling). Format: cell-based, rat. On the procedure:
NRVM were isolated from the hearts of 2 day old Sprague-Dawley rat pups (Charles River) and maintained under standard conditions as described (Haldar et al., 2010). The cells were differentially plated for 1.5 h in cell culture dishes to remove contaminating non-myocytes. Unless otherwise stated, NRVM were plated at a density of 10^5 cells/mL. Cells were initially plated in growth medium (DMEM supplemented with 5% FBS, 100 U/mL penicillin-streptomycin, and 2 mM L-glutamine) for 24-36 hours and maintained in serum-free media thereafter (DMEM supplemented with 0.1% BSA, 1% insulin-transferrin-selenium liquid media supplement (Sigma 13146), 100 U/mL penicillin-streptomycin, and 2 mM L-glutamine). Media was changed every 2-3 days. Prior to stimulation with agonists, NRVM were maintained in serum-free medium for 48-72 hours. For hypertrophic stimulation, NRVM were incubated with JQ1 versus DMSO at indicated concentrations for 6 h followed by stimulation with PE (100 μM) for indicated timepoints.
For tissue RNA, a 10-20 mg piece of mouse heart tissue was preserved in RNA Later stabilization reagent (Qiagen) followed by mechanical disruption/homogenization in PureZOL (BioRad) on a TissueLyser (Qiagen) using stainless steel beads (Qiagen). The aqueous phase was extracted with chloroform. RNA was purified from the aqueous phase using the Aurum purification kit (BioRad #732-6830) following manufacturer's instructions. For cellular samples, total RNA from NRVM was isolated using the High Pure RNA isolation kit (Roche #11828665001) with on-column DNAase treatment according to manufacturer's directions. Purified RNA was reverse transcribed to complementary DNA using the iScript™ RT Supermix (Biorad #170-8841) following manufacturer's protocol. Quantitative real-time PCR was performed using TaqMan chemistry (Fast Start Universal Probe Master (Roche cat#4914058001) and labeled probes from the Roche Universal Probe Library System) on a Roche LightCycler. Relative expression was calculated using the AACt-method with normalization to constitutive genes as indicated.
To determine the transcriptional effects of BET bromodomain inhibition during hypertrophic transformation, gene expression profiling (GEP) studies were performed in cultured NRVM at baseline and after PE stimulation (1.5, 6, 48 h) in the presence or absence of JQ1. These three timepoints were assessed to capture induction of early response genes such as c-Myc (Starksen et al., 1986) and the final hypertrophic gene program. […] A heat map of genes selected based on the highest magnitude of PE-mediated changes illustrates each of these clusters (FIG. 3A). […]
Background: Real-time PCR tracks product formation cycle by cycle.

The test system of series [2] is mice subject to TAC. The series can be described thus: Transverse aortic constriction (TAC) model, JQ1 begun 1.5 days after TAC. The class given is in vivo, mouse. The protocol:
JQ1 was synthesized and purified in the laboratory of Dr. James Bradner (DFCI) as previously published (Filippakopoulos et al., 2010). For in vivo experiments, a stock solution (50 mg/mL in DMSO) was diluted to a working concentration of 5 mg/mL in aqueous carrier (10% hydroxypropyl β-cyclodextrin; Sigma C0926) using vigorous vortexing. Mice were injected at a dose of 50 mg/kg given intraperitoneally once daily. Vehicle controls were given an equal amount of DMSO in carrier solution. All solutions were prepared and administered using sterile technique. For in vitro experiments, JQ1 and other BET inhibitors were dissolved in DMSO and administered to cells at indicated concentrations using an equal volume of DMSO as control. The BET inhibitors used were as follows: iBET, iBET-151, RVX-208, and PF-1.
All mice were C57Bl/6J littermate males aged 10-12 weeks. For TAC, mice were anesthetized with ketamine/xylazine, mechanically ventilated (Harvard apparatus), and subject to thoracotomy. The aortic arch was constricted between the left and right carotid arteries using a 7.0 silk suture and a 27-gauge needle as previously described (Hu et al., 2003). In our hands, this protocol a consistent peak pressure gradient of approximately 50 mmHg across the constricted portion of the aorta. For PE infusion, mice were anesthetized using continuous 1% inhalational isofluorane. Mini-osmotic pumps (Alzet 2004, Durect Corp.) were filled with phenylephrine hydrochloride (PE, Sigma) or vehicle (normal saline) and implanted subcutaneously on the dorsal aspect of the mouse. PE was infused at a dose of 75 mg/kg/day for 17 days. Injections of JQ1 or vehicle were begun 1.5 days postoperatively.
For transthoracic echocardiography, mice were anesthetized with 1% inhalational isofluorane and imaged using the Vevo 770 High Resolution Imaging System (Visual Sonics, Inc.) and the RMV-707B 30 MHz probe. Measurements were obtained from M-mode sampling and integrated EKV images taken in the LV short axis at the mid-papillary level (Haldar et al., 2010). Measurements of pressure gradients across the constricted portion of the aorta were obtained by high frequency Doppler as previously described (Liu et al., 2012). Conscious tail-vein systolic blood pressure was measured using the BP2000 Blood Pressure Analysis System (Visitech Systems, Inc.) as recommended by the manufacturer. To allow mice to adapt to the apparatus, we performed daily blood pressure measurements for one week prior to beginning experiments. Treadmill endurance exercise testing was performed on a motorized mouse treadmill (Columbus Instruments) as previously described (Haldar et al., 2012).
Short-axis heart sections from the mid-ventricle were fixed in PBS/4% paraformaldehyde and embedded in paraffin. Cardiomyocyte cross sectional area was determined by staining with rhodamine-conjugated wheat-germ agglutinin (Vector Laboratories RL-1022) as quantified as previously described (Froese et al., 2011). Fibrosis was visualized using Masson's Trichrome staining kit (Biocare medical) with quantification of fibrotic area as previously described (Song et al., 2010). Terminal deoxynucleotidyl transferase dUTP nick-end label (TUNEL) staining and quantification was performed as previously described (Song et al., 2010) using the ApopTag Plus kit (Millipore) according to manufacturer's instructions. Myocardial capillary staining was performed in frozen LV sections using anti-PECAM-1 antibodies (EMD Millipore cat#CBL-1337) as previously described (Haldar et al., 2010).

Setting [3] is: JQ1 50 mg/kg/day IP from 1.5 days after TAC, out to 4 weeks.

For `Cc1sc2c(c1C)C(c1ccc(Cl)cc1)=N[C@@H](CC(=O)OC(C)(C)C)c1nnc(C)n1-2` [JQ1], the “PE-mediated gene induction, global gene expression profiling” value in series [1] (500 nM JQ1, 100 μM PE, 1.5, 6, 48 h) was “attenuate or completely abrogate”. In addition, in series [1] (JQ1 500 nM, PE 100 μM), the “PE-mediated c-myc induction (qRT-PCR)” value is “does not suppress” and the “PE-mediated induction of IL6 (qRT-PCR)” value is “significantly attenuated”. The “PE mediated pathologic gene induction (hypertrophic marker genes, qRT-PCR)” value in series [1] (JQ1 500 nM, PE 100 μM, 48 h) was “significantly blocked”. Besides, the “tolerability during TAC (activity, mortality, weight loss vs vehicle)” value in series [2] (JQ1 50 mg/kg/day) is “well tolerated”. Further, in series [2] (setting [3]), the “TAC-mediated LV cavity dilation (echocardiography)” value is “protected against”, the “TAC-mediated LV systolic dysfunction (echocardiography)” value is listed as “protected against” and the “TAC-mediated LV wall thickening (echocardiography)” value is “protected against”. In addition, in series [2] (JQ1 50 mg/kg/day, 4 weeks TAC), the “pathologic cardiomegaly (HW/BW)” value is reported as “inhibited” and the “pulmonary congestion (LW/BW)” value is reported as “inhibited”. For the same compound, the “myocardial expression of canonical hypertrophic marker genes” value in series [2] (JQ1 50 mg/kg/day, after TAC) is on record as “inhibited”. Moreover, in series [2] (JQ1 50 mg/kg/day, sham surgery), the “effect on LV structure or function in sham treated mice” value is listed as “no adverse effect”. Besides, the “TAC-mediated induction of c-Myc expression in vivo” value in series [2] (TAC mouse hearts, qRT-PCR) is on record as “no effect”. In addition, in series [2] (TAC, 3, 11 and 28 days), the “evolution of pathological gene expression program in the heart (microarray GEP)” value was “suppressed”. Also, in series [2] (heart tissue, 4 weeks of TAC), the “apoptotic cell death (TUNEL)” value is “significantly attenuated”; the “capillary rarefaction (PECAM-1)” value is “significantly attenuated”; the “development of cardiomyocyte hypertrophy (wheat germ agglutinin, cardiomyocyte area)” value is given as “significantly attenuated”; the “myocardial fibrosis (Masson's Trichrome)” value is given as “significantly attenuated”.
